The results in this text go back to the NIST ThermoML archive (doi:10.1016/j.fluid.2007.10.010).

± gives the expanded uncertainty stated by the source.

Data set [1] in a line: refractive index (Na D-line) (dimensionless). Conditions: 298.15 K; 101.33 kPa; Liquid; Standard Abbe refractometry.
The conditions of data set [2]: 298.15 K; 101.33 kPa; Liquid; Vibrating tube method.

For `CCCCCCCCn1cc[n+](C)c1.O=S(=O)([N-]S(=O)(=O)C(F)(F)F)C(F)(F)F`, the refractive index in data set [1] is 1.43331 ± 0.0012. The mass density in data set [2] was 1320.76 ± 12 kg/m3.
As to `CCCCCCC` [heptane], in data set [1], the refractive index is given as 1.38517 ± 0.00068. Also, the mass density in data set [2] was determined as 679.466 ± 0.26 kg/m3.
On to `CCCCCCCCCCCCCCCC` [hexadecane], for which the refractive index in data set [1] stood at 1.43232 ± 0.0007. Also, in data set [2], the mass density is given as 771.15 ± 0.3 kg/m3.
The matching figures for `CCCCCC` [hexane]: 1.37287 ± 0.0007 and 655.06 ± 0.31 kg/m3.
The matching figures for `c1ccsc1` [thiophene]: 1.52581 ± 0.00068 and 1058.5 ± 0.23 kg/m3.

The refractive index is a measure of how strongly the sample bends light. Broadly, the mass density is mass per unit of volume.
